Blank lines part the entries; values can stand above or below the molecule they belong to.
Structure (SMILES): CCCCNS(=O)(=O)NC(=O)OCc1ccc(OCCOC)cc1Oc1ncc(C(F)(F)F)cc1Cl [Example 66, 2-{[3-chloro-5-(trifluoromethyl)pyridin-2-yl]oxy}-4-(2-methoxyethoxy)benzyl [(butylamino)sulfonyl]carbamate]
melting point: 164 to 165 °C

Structure (SMILES): CCOCCNC(=O)OCCCc1ccc(OCCOC)cc1Oc1ncc(C(F)(F)F)cc1Cl [Example 56, 3-[2-{[3-chloro-5-(trifluoromethyl)pyridin-2-yl]oxy}-4-(2-methoxyethoxy)phenyl]propyl (2-ethoxyethyl)carbamate]
melting point: 66 to 68 °C

Structure (SMILES): COCCOc1ccc(CCCNS(=O)(=O)c2cccc(Cl)c2)c(Oc2ncc(C(F)(F)F)cc2Cl)c1 [Example 24, 3-chloro-N-{3-[2-{[3-chloro-5-(trifluoromethyl)pyridin-2-yl]oxy}-4-(2-methoxyethoxy)phenyl]propyl}benzenesulfonamide]
melting point: 110 to 114 °C

Structure (SMILES): COCCOc1ccc(CCCNS(=O)(=O)c2ccccc2)c(Oc2ncc(C(F)(F)F)cc2Cl)c1 [Example 16, N-{3-[2-{[3-chloro-5-(trifluoromethyl)pyridin-2-yl]oxy}-4-(2-methoxyethoxy)phenyl]propyl}benzenesulfonamide]
melting point: 94 to 95 °C

Structure (SMILES): CC(C)Oc1cc(CCC(=O)NS(=O)(=O)C(C)C)n(Cc2ccc(Cl)cc2Cl)n1 [Example 89, 3-[1-(2,4-dichlorobenzyl)-3-isopropoxy-1H-pyrazol-5-yl]-N-(isopropylsulfonyl)propanamide]
melting point: 135 to 136 °C

Structure (SMILES): COCCOc1ccc(CCCNS(=O)(=O)c2ccccc2[N+](=O)[O-])c(Oc2ncc(C(F)(F)F)cc2Cl)c1 [Example 29, N-{3-[2-{[3-chloro-5-(trifluoromethyl)pyridin-2-yl]oxy}-4-(2-methoxyethoxy)phenyl]propyl}-2-nitrobenzenesulfonamide]
melting point: 125.5 to 126 °C

Structure (SMILES): CCCCCNS(=O)(=O)NC(=O)OCc1ccc(OCCOC)cc1Oc1ncc(C(F)(F)F)cc1Cl [Example 61, 2-{[3-chloro-5-(trifluoromethyl)pyridin-2-yl]oxy}-4-(2-methoxyethoxy)benzyl [(pentylamino)sulfonyl]carbamate]
melting point: 153 to 155 °C

Structure (SMILES): COCCOc1ccc(CCC(=O)NS(=O)(=O)c2ccc(F)cc2)c(Oc2ncc(C(F)(F)F)cc2Cl)c1 [Example 11, 3-[2-{[3-chloro-5-(trifluoromethyl)pyridin-2-yl]oxy}-4-(2-methoxyethoxy)phenyl]-N-[(4-fluorophenyl)sulfonyl]propanamide]
melting point: 136 to 138 °C

Structure (SMILES): CCCCCS(=O)(=O)NCC(C)Cc1ccc(OCCOC)cc1Oc1ncc(C(F)(F)F)cc1Cl (centres unmarked) [Example 41, N-{3-[2-{[3-chloro-5-(trifluoromethyl)pyridin-2-yl]oxy}-4-(2-methoxyethoxy)phenyl]-2-methylpropyl}pentane-1-sulfonamide]
melting point: 80 to 82 °C

Structure (SMILES): CCCCCS(=O)(=O)NC(=O)OCc1ccc(OCCCC)cc1Oc1ncc(C(F)(F)F)cc1Cl [Example 62, 4-butoxy-2-{[3-chloro-5-(trifluoromethyl)pyridin-2-yl]oxy}benzyl (pentylsulfonyl)carbamate]
melting point: 124.5 to 125.5 °C

Structure (SMILES): CCCCOc1cc(/C=C/S(=O)(=O)NC(=O)OC(C)(C)C)n(Cc2ccc(Cl)cc2Cl)n1 [Example 127, tert-butyl ({(E)-2-[3-butoxy-1-(2,4-dichlorobenzyl)-1H-pyrazol-5-yl]vinyl}sulfonyl)carbamate]
melting point: 152 to 153 °C

Structure (SMILES): CCCCCS(=O)(=O)NC(=O)CC(C)c1ccc(OCCOC)cc1Oc1ncc(C(F)(F)F)cc1Cl (centres unmarked) [Example 77, 3-[2-{[3-chloro-5-(trifluoromethyl)pyridin-2-yl]oxy}-4-(2-methoxyethoxy)phenyl]-N-(pentylsulfonyl)butanamide]
melting point: 136.9 to 137.1 °C

Structure (SMILES): CC(C)Oc1ccc(CCC(=O)NS(=O)(=O)c2ccccc2)c(Oc2ncc(C(F)(F)F)cc2Cl)c1 [Example 4, 3-(2-{[3-chloro-5-(trifluoromethyl)pyridin-2-yl]oxy}-4-isopropoxyphenyl)-N-(phenylsulfonyl)propanamide]
melting point: 129 to 129.5 °C

Structure (SMILES): CCOCCNS(=O)(=O)NC(=O)OCc1ccc(OCCOC)cc1Oc1ncc(C(F)(F)F)cc1Cl [Example 76, 2-{[3-chloro-5-(trifluoromethyl)pyridin-2-yl]oxy}-4-(2-methoxyethoxy)benzyl {[(2-ethoxyethyl)amino]sulfonyl}carbamate]
melting point: 142.5 to 143 °C

Structure (SMILES): CC(C)Oc1cc(CCC(=O)NS(=O)(=O)c2ccc(C(F)(F)F)cc2)n(Cc2ccc(Cl)cc2Cl)n1 [Example 83, 3-[1-(2,4-dichlorobenzyl)-3-isopropoxy-1H-pyrazol-5-yl]-N-{[4-(trifluoromethyl)phenyl]sulfonyl}propanamide]
melting point: 167 to 169 °C

Structure (SMILES): CCN(CC)C(=O)COc1ccc(CCC(=O)NS(=O)(=O)CCC(C)C)c(Oc2ncc(C(F)(F)F)cc2Cl)c1 [Example 45, 3-{2-{[3-chloro-5-(trifluoromethyl)pyridin-2-yl]oxy}-4-[2-(diethylamino)-2-oxoethoxy]phenyl}-N-[(3-methylbutyl)sulfonyl]propanamide]
melting point: 123 to 125 °C

Structure (SMILES): CCCCS(=O)(=O)NC(=O)OCCCc1ccc(OCCOC)cc1Oc1ncc(C(F)(F)F)cc1Cl.O (hydrate or solvate)
melting point: 94 to 96 °C

More lines, now with the values ahead:

melting point: 189 to 190 °C
Structure (SMILES): CCCCCS(=O)(=O)NC(=O)/C=C/c1ccc(C)n1Cc1ccc(Cl)cc1Cl [Example 457, (2E)-3-[1-(2,4-dichlorobenzyl)-5-methyl-1H-pyrrol-2-yl]-N-(pentylsulfonyl)acrylamide]

melting point: 88.5 to 89.1 °C
Structure (SMILES): CCCCCS(=O)(=O)NC(=O)/C=C/c1ccc(OCCOC)cc1Cc1ncc(Br)s1 [Example 178, (2E)-3-[2-[(5-bromo-1,3-thiazol-2-yl)methyl]-4-(2-methoxyethoxy)phenyl]-N-(pentylsulfonyl)acrylamide]

melting point: 156 to 158 °C
Structure (SMILES): CCCCCS(=O)(=O)NC(=O)CCc1cc(OCc2nnc(C)o2)nn1Cc1ccc(Cl)cc1Cl [Example 105, 3-{1-(2,4-dichlorobenzyl)-3-[(5-methyl-1,3,4-oxadiazol-2-yl)methoxy]-1H-pyrazol-5-yl}-N-(pentylsulfonyl)propanamide]

melting point: 104 to 105 °C
Structure (SMILES): CC(C)Oc1cc(CCC(=O)NS(C)(=O)=O)n(Cc2ccc(Cl)cc2Cl)n1 [Example 148, 3-[1-(2,4-dichlorobenzyl)-3-isopropoxy-1H-pyrazol-5-yl]-N-(methylsulfonyl)propanamide]

melting point: 120 to 122 °C
Structure (SMILES): CCCCCNS(=O)(=O)NC(=O)/C=C/c1ccc(OCCOC)cc1Oc1ncc(C(F)(F)F)cc1Cl [Example 215, (2E)-3-[2-{[3-chloro-5-(trifluoromethyl)pyridin-2-yl]oxy}-4-(2-methoxyethoxy)phenyl]-N-[(pentylamino)sulfonyl]acrylamide]

melting point: 157 to 158 °C
Structure (SMILES): COCCOc1ccc(/C=C/C(=O)NS(=O)(=O)c2cccc(Cl)c2)c(Oc2ncc(C(F)(F)F)cc2Cl)c1 [Example 232, (2E)-N-[(3-chlorophenyl)sulfonyl]-3-[2-{[3-chloro-5-(trifluoromethyl)pyridin-2-yl]oxy}-4-(2-methoxyethoxy)phenyl]acrylamide]

melting point: 164.5 to 165.2 °C
Structure (SMILES): CCCCCS(=O)(=O)NC(=O)/C=C/c1ccc(OCCOC)cc1Oc1cc(C(F)(F)F)ccc1[N+](=O)[O-] [Example 174, (2E)-3-{4-(2-methoxyethoxy)-2-[2-nitro-5-(trifluoromethyl)phenoxy]phenyl}-N-(pentylsulfonyl)acrylamide]

melting point: 148 to 150.3 °C
Structure (SMILES): CCCCCS(=O)(=O)NC(=O)/C=C/c1ccc(OCCOC)cc1Oc1ncc([N+](=O)[O-])cc1C [Example 185, (2E)-3-{4-(2-methoxyethoxy)-2-[(3-methyl-5-nitropyridin-2-yl)oxy]phenyl}-N-(pentylsulfonyl)acrylamide]

melting point: 149.5 to 152.5 °C
Structure (SMILES): CC(C)CCS(=O)(=O)NC(=O)/C=C/c1cc(OC2CCOCC2)nn1Cc1ccc(C(F)(F)F)cc1Cl [Example 153, (2E)-3-[1-[2-chloro-4-(trifluoromethyl)benzyl]-3-(tetrahydro-2H-pyran-4-yloxy)-1H-pyrazol-5-yl]-N-[(3-methylbutyl)sulfonyl]acrylamide]

melting point: 145.7 to 145.8 °C
Structure (SMILES): COCCOc1ccc(/C=C(\C)C(=O)NS(=O)(=O)c2ccc(Cl)cc2)c(Oc2ncc(C(F)(F)F)cc2Cl)c1 [Example 230, (2E)-N-[(4-chlorophenyl)sulfonyl]-3-[2-{[3-chloro-5-(trifluoromethyl)pyridin-2-yl]oxy}-4-(2-methoxyethoxy)phenyl]-2-methylacrylamide]

melting point: 86 to 88 °C
Structure (SMILES): CCCCCS(=O)(=O)NC(=O)/C=C/c1ccc(OCC(O)COC(C)C)cc1Oc1ncc(C(F)(F)F)cc1Cl (centres unmarked) [Example 456, (2E)-3-[2-{[3-chloro-5-(trifluoromethyl)pyridin-2-yl]oxy}-4-(2-hydroxy-3-isopropoxypropoxy)phenyl]-N-(pentylsulfonyl)acrylamide]

melting point: 152 to 153 °C
Structure (SMILES): CC(C)Oc1cc(/C=C/S(=O)(=O)NC(=O)OC(C)(C)C)n(Cc2ccc(Cl)cc2Cl)n1 [Example 124, tert-butyl ({(E)-2-[1-(2,4-dichlorobenzyl)-3-isopropoxy-1H-pyrazol-5-yl]vinyl}sulfonyl)carbamate]

melting point: 98 to 100 °C
Structure (SMILES): COCCCNS(=O)(=O)NC(=O)OC/C=C/c1ccc(OCCOC)cc1Oc1ncc(C(F)(F)F)cc1Cl [Example 432, (2E)-3-[2-{[3-chloro-5-(trifluoromethyl)pyridin-2-yl]oxy}-4-(2-methoxyethoxy)phenyl]prop-2-en-1-yl {[(3-methoxypropyl)amino]sulfonyl}carbamate]

melting point: 132 to 134 °C
Structure (SMILES): CC(C)Oc1cc(CCC(=O)NS(=O)(=O)CCCc2ccccc2)n(Cc2ccc(Cl)cc2Cl)n1 [Example 91, 3-[1-(2,4-dichlorobenzyl)-3-isopropoxy-1H-pyrazol-5-yl]-N-[(3-phenylpropyl)sulfonyl]propanamide]

melting point: 154 to 156 °C
Structure (SMILES): COCCOc1ccc(/C=C/COC(=O)NS(=O)(=O)NCCN2CCCC2)c(Oc2ncc(C(F)(F)F)cc2Cl)c1 [Example 434, (2E)-3-[2-{[3-chloro-5-(trifluoromethyl)pyridin-2-yl]oxy}-4-(2-methoxyethoxy)phenyl]prop-2-en-1-yl {[(2-pyrrolidin-1-ylethyl)amino]sulfonyl}carbamate]

From patent US20100041892A1, “Therapeutic agent for diabetes” (priority 2005, published 2010)
